Legend:
GT2a-7a-QC69 replicon = assay: Stable replicon assay, comparison to daclatasvir, GT2a-7a-QC69; type: cell-based; conditions: Hepatitis C virus
Source text: The plasmid pSG-hRlucNeo-JFH1 was generated from pSG-Neo-JFH1 (Kato et al. 2003, Gastroentrology 125:1808-1817). A fragment containing the JFH-1 5′ NTR-hRluc-Neo gene and two unique restriction sites (AgeI and PmeI) was synthesized (Integrated DNA Technologies, Coralville, Iowa). The resulting plasmid was digested with AgeI and PmeI and the excised fragment (5′NTR-hRluc-Neo) was ligated into pSG-Neo-JFH1 digested with the same enzymes to generate pSG-hRlucNeo-JFH1. To allow expression of heterologous NS5A sequences, an NS5A shuttle vector was generated from pSG-Neo-JFH1, in which the entire coding sequence of NS5A plus the first eight codons of NS5B were replaced with an AfeI restriction site. This was done by Infusion cloning (Clontech, Mountain View, Calif.) from two PCR products that were generated using pSG-Neo-JFH1 as a template and the following primer pairs: […]
Stable HCV replicon cell lines were grown in complete media (Dulbecco's modified Eagle medium [DMEM], 2 mM L-glutamine, 0.1 mM essential amino acids, 1 mM sodium pyruvate, 10% fetal bovine serum) with the addition 500 μg/ml […] (G418). […] For stable and transient replicon assays, luciferase activity of compound-treated cells was measured relative to DMSO-treated cells after 72 h incubation using RENILLA-GLO™ Luciferase Assay (Promega). […]

[1] = test system: HCV genotype 1a replicon, NS5A M28T; assay: Transient replication assay, GT1a NS5A M28T; type: cell-based; conditions: Hepatitis C virus
[2] = test system: HCV genotype 1a replicon, NS5A K24G; assay: Transient replication assay, GT1a NS5A K24G; type: cell-based; conditions: Hepatitis C virus
[3] = test system: HCV genotype 1b replicon Huh7-lunet cells; assay: Resistance barrier analysis in HCV genotype 1b replicon cells (crystal violet staining); type: cell-based, Hepatitis C virus; conditions: 2×EC50, 3 weeks in the presence of G418
Experimental: Stable HCV genotype 1b replicon Huh7-lunet cells were plated in 100 mm cell culture dishes (1.5×10^5 and 3×10^5 cells/dish for DMSO control and compound treated cells, respectively) and incubated for 24 hr (37° C., 5% CO2) prior to compound addition. Compounds (solubilized in DMSO) were prepared in complete media (0.5% DMSO final) and added to cells. Cells were maintained in the presence of compound (or DMSO) and G418 (500 μg/mL) for 3 weeks with media replacement two times per week. Cells were then fixed (4% paraformaldehyde, 30 min at room temperature) and stained (0.5% crystal violet/25% methanol, 20 min room temperature) to allow visualization of surviving cells. Plates were then washed with water to remove excess stain and left to air dry overnight prior to imaging (BioRad Gel Doc XR+Molecular Imager).
FIG. 1 illustrates comparison of a compound of the invention to daclatasvir in a test that provides a qualitative indication of the occurrence of resistance. […] The control plate, with DMSO alone (no compound 16 or daclatasvir), is almost completely opaque.

With COC(=O)N[C@H](C(=O)N1CCC[C@H]1c1nc(-c2ccc(-c3ccc(-c4c[nH]c([C@@H]5CCCN5C(=O)[C@@H](NC(=O)OC)C(C)C)n4)cc3)cc2)c[nH]1)C(C)C [Daclatasvir, reference compound] the EC50 (GT2a-7a-QC69 replicon) was 0.016 nM, the EC50 [1] was 3.4 nM and the EC50 [2] was 0.02 nM.

COC(=O)N[C@H](C(=O)N1C[C@]2(CCCOC2)C[C@H]1c1ncc(-c2ccc(-c3ccc4c(ccc5nc([C@@H]6C[C@@H]7CCC[C@@H]7N6C(=O)[C@@H](NC(=O)OC)C(C)C)[nH]c54)c3)cc2)[nH]1)C(C)C [Compound 16] was tested, and the EC50 (GT2a-7a-QC69 replicon) was 0.02 nM, the “surviving replicon cells (crystal violet staining)” value [3] was “almost entirely prevented replicon cell survival” and the EC50 [1] was 0.049 nM. It also gave an EC50 [2] of 0.0021 nM.

Source: patent US10407445B2, “Hepatitis C virus inhibitors” (ENANTA PHARMACEUTICALS, INC., priority 2013, dated 2019)
